Measured values published in patent publication US10017481B2, “Conformationally constrained, fully synthetic macrocyclic compounds” (POLYPHOR AG, priority 2012, dated 2018).

How the values were obtained:
Assay type in all cases: in vitro ADME
[1] = Plasma stability assay, CD-1 mouse plasma; settings: for Plasma Stability 240 min mouse/(rat) [% remain.]: CD-1 mouse plasma, 10 μM, 37° C.; for half-life at 10 μM: both sexes, CD-1, mouse
Experimental: (§1) 5. Plasma and Metabolic Stability Assays Example compounds were dissolved in DMSO/H2O 90:10 to a final concentration of 10 mM for plasma stability determination and metabolic stability determination. The assays were conducted according to literature precedents (F. P. Guengerich, Analysis and Characterization of Enzymes; in: Principles and Methods of Toxicology, A. W. Hayes (Ed.) Raven Press: New York, 1989, 777-813; R. Singh et al., In vitro metabolism of a potent HIV-protease inhibitor (141W94) using rat, monkey and human liver S9, Rapid Commun. Mass Spectrom. 1996, 10, 1019-1026). Plasma Stability Assay Human plasma (Blutspendedienst SRK, Basel) and CD-1 mouse plasma (mixed gender pool >50 animals, Innovative Research, Calif., USA) are both sodium citrate stabilized. The assay is performed in triplicates at 10 μM compound concentration and 37° C. Samples are taken at 0, 15, 30, 60, 120 and 240 minutes and stopped by precipitation with 3 volumes of acetonitrile/formic acid 98:2 and shaking (2 minutes, 600 rpm) followed by filtration (−20 mm Hg). The filtrate is collected. The filtrate (100 μL) is evaporated and reconstituted in the suitable solvent (cf. Table 33) to be analyzed by HPLC/MS/MS. The resulting peak area counts are expressed in percent of the 0 value and used to determine the endpoint stability in % and the half life T in minutes. In order to monitor assay integrity the degradation of propantheline is assayed with every experimental set.

[2] = Plasma stability assay, human plasma; settings: for Plasma Stability 240 min hum [% remain.]: human plasma, 10 μM, 37° C.
Experimental: as §1

[3] = Metabolic stability assay, CD-1 mouse microsomes; settings: for Metabolic Stability 60 min mouse/(rat) [% remain.] / half-life at 10 μM: CD-1 mouse microsomes, 10 μM, 37° C.; for half-life at 10 μM: both sexes, 1 mg/ml protein, read-out: Metabolic Stability T ½ [min] mouse/(rat)
Experimental: (§2) 5. Plasma and Metabolic Stability Assays
(§3) Example compounds were dissolved in DMSO/H2O 90:10 to a final concentration of 10 mM for plasma stability determination and metabolic stability determination.
(§4) The assays were conducted according to literature precedents (F. P. Guengerich, Analysis and Characterization of Enzymes; in: Principles and Methods of Toxicology, A. W. Hayes (Ed.) Raven Press: New York, 1989, 777-813; R. Singh et al., In vitro metabolism of a potent HIV-protease inhibitor (141W94) using rat, monkey and human liver S9, Rapid Commun. Mass Spectrom. 1996, 10, 1019-1026).
(§5) Metabolic Stability Assay
(§6) Microsomes from a human 50 donor mixed gender pool and 1:1 mixtures of microsomes from CD-1 mouse single-gender pools are purchased from Celsis (Belgium). The enzymatic reaction is performed in a buffer containing an NADPH regeneration system and microsomes with the following end concentrations: 100 mM potassium phosphate buffer (all from Sigma), 1 mg/mL glucose-6-phosphate, 1 mg/mL β-nicotinamide adenine dinucleotide phosphate (NADP), 0.65 mg/mL magnesium chloride, 0.8 units/mL of glucose-6-phosphate dehydrogenase (prediluted with 5 mM citrate buffer), 10 μM compound and 1 mg/ml microsomal protein. Compounds are incubated at 37° C. in duplicates and samples are taken after 0, 5, 10, 20 and 60 minutes. After acetonitrile precipitation (3 volumes), shaking (2 minutes, 600 rpm) followed by centrifugation (10 minutes, 3200 g), the supernatant is dried reconstituted in the suitable solvent (cf. Table 33) and analyzed by HPLC/MS/MS. Metabolic turnover is expressed in % of the initial 0 minutes value and half life T½ (min) is calculated. Verapamil for human and propranolol for mouse are used as reference and are assayed with every experimental set.

[4] = Metabolic stability assay, human liver microsomes; settings: for half-life at 10 μM: both sexes, liver microsomes, 1 mg/ml protein, read-out: Metabolic Stability T ½ [min] hum; for half-life at 10 μM / Metabolic Stability 60 min hum [% remain.]: human microsomes, 37° C., 10 μM
Experimental: as §2, §3, §4, §5, §6

Row | SMILES | Plasma Stability 240 min mouse/(rat) [% remain.] [1] | half-life at 10 μM ([1]; plasma) | Plasma Stability 240 min hum [% remain.] [2] | half-life at 10 μM ([2]; human, plasma) | Metabolic Stability 60 min mouse/(rat) [% remain.] [3] | half-life at 10 μM [3] | half-life at 10 μM [4] | Metabolic Stability 60 min hum [% remain.] [4] | Plasma Stability T ½ [min] mouse/(rat) ([1]; plasma) | Plasma Stability T ½ [min] hum ([2]; human, plasma) | Metabolic Stability T ½ [min] mouse/(rat) ([3]; microsomes) | Metabolic Stability T ½ [min] hum ([4]; human, microsomes)
1 | COc1ccc2c(c1)-c1cccc(c1)C(=O)N(C)[C@H](C(=O)N1CCCC1)CCC(=O)N[C@H](C)CO2 [Ex. 46, (10R,15S)-4-methoxy-10,16-dimethyl-15-(1-pyrrolidinylcarbonyl)-8-oxa-11,16-diazatricyclo[16.3.1.0^2,7]docosa-1(22),2,4,6,18,20-hexaene-12,17-dione] | 78 % remain. | > 4 h | 100 % remain. | > 4 h | 71 % remain. | > 60 min | 32 min | 26 % remain. |  |  |  | 
2 | COc1ccc2c(c1)-c1cccc(c1)C(=O)N(C)[C@H](C(=O)NCCN(C)C)CCC(=O)N[C@H](C)CO2 [Ex. 47, (10R,15S)-N-[2-(dimethylamino)ethyl]-4-methoxy-10,16-dimethyl-12,17-dioxo-8-oxa-11,16-diazatricyclo[16.3.1.0^2,7]docosa-1(22),2,4,6,18,20-hexaene-15-carboxamide] | 86 % remain. | > 4 h | 99 % remain. | > 4 h | 100 % remain. | > 60 min | > 60 min | 83 % remain. |  |  |  | 
3 | COc1ccc2c(c1)-c1cccc(c1)C(=O)N(C)[C@H](C(=O)NCCCN)CCC(=O)N[C@H](C)CO2 [Ex. 49, (10R,15S)-N-(3-aminopropyl)-4-methoxy-10,16-dimethyl-12,17-dioxo-8-oxa-11,16-diazatricyclo[16.3.1.0^2,7]docosa-1(22),2,4,6,18,20-hexaene-15-carboxamide] | 76 % remain. | > 4 h | 95 % remain. | > 4 h | 92 % remain. | > 60 min | > 60 min | 100 % remain. |  |  |  | 
4 | COCCNC(=O)[C@@H]1CCC(=O)N[C@H](C)COc2ccc(OC)cc2-c2cccc(c2)C(=O)N1C [Ex. 51, (10R,15S)-4-methoxy-N-(2-methoxyethyl)-10,16-dimethyl-12,17-dioxo-8-oxa-11,16-diazatricyclo[16.3.1.0^2,7]docosa-1(22),2,4,6,18,20-hexaene-15-carboxamide] | 80 % remain. | > 4 h | 100 % remain. | > 4 h | 69 % remain. | > 60 min | > 60 min | 71 % remain. |  |  |  | 
5 | COc1ccc2c(c1)-c1cccc(c1)C(=O)N(C)[C@H](C(=O)NC1CC1)CCC(=O)N[C@H](C)CO2 [Ex. 52, (10R,15S)-N-cyclopropyl-4-methoxy-10,16-dimethyl-12,17-dioxo-8-oxa-11,16-diazatricyclo[16.3.1.0^2,7]docosa-1(22),2,4,6,18,20-hexaene-15-carboxamide] | 95 % remain. | > 4 h | 99 % remain. | > 4 h | 78 % remain. | > 60 min | > 60 min | 100 % remain. |  |  |  | 
6 | COc1ccc2c(c1)-c1cccc(c1)C(=O)N(C)[C@H](C(=O)NCC(C)C)CCC(=O)N[C@H](C)CO2 [Ex. 54, (10R,15S)-N-isobutyl-4-methoxy-10,16-dimethyl-12,17-dioxo-8-oxa-11,16-diazatricyclo[16.3.1.0^2,7]docosa-1(22),2,4,6,18,20-hexaene-15-carboxamide] | 100 % remain. | > 4 h | 100 % remain. | > 4 h | 82 % remain. | > 60 min | > 60 min | 60 % remain. |  |  |  | 
7 | COc1ccc2c(c1)-c1cccc(c1)C(=O)N(C)[C@H](C(=O)NCC(=O)O)CCC(=O)N[C@H](C)CO2 [Ex. 57, 2-({[(10R,15S)-4-methoxy-10,16-dimethyl-12,17-dioxo-8-oxa-11,16-diazatricyclo[16.3.1.0^2,7]docosa-1(22),2,4,6,18,20-hexaen-15-yl]carbonyl}amino)acetic acid] | 74 % remain. | > 4 h | 100 % remain. | > 4 h | 100 % remain. | > 60 min | > 60 min | 100 % remain. |  |  |  | 
8 | COc1ccc2c(c1)-c1cccc(c1)C(=O)N(C)[C@H](C(=O)N(C)CCN(C)C)CCC(=O)N[C@H](C)CO2 [Ex. 59, (10R15S)-N-[2-(dimethylamino)ethyl]-4-methoxy-N,10,16-trimethyl-12,17-dioxo-8-oxa-11,16-diazatricyclo[16.3.1.0^2,7]docosa-1(22),2,4,6,18,20-hexaene-15-carboxamide] |  |  |  |  |  |  |  |  | >240 min | >240 min | >60 min | >60 min
9 | C[C@H]1COc2cccc(c2)-c2cccc(c2)C(=O)N(C)[C@H](C(=O)O)CCC(=O)N1 [Ex. 69, (9S,14S)-9,15-dimethyl-11,16-dioxo-7-oxa-10,15-diazatricyclo[15.3.1.1^2,6]docosa-1(21),2(22),3,5,17,19-hexaene-14-carboxylic acid] | 45 % remain. | 3.33 h | 91 % remain. | > 4 h | 100 % remain. | > 60 min | > 60 min | 100 % remain. |  |  |  | 
10 | CNC(=O)[C@@H]1CCC(=O)N[C@@H](C)COc2cccc(c2)-c2cccc(c2)C(=O)N1C [Ex. 70, (9S,14S)-N,9,15-trimethyl-11,16-dioxo-7-oxa-10,15-diazatricyclo[15.3.1.1^2,6]docosa-1(21),2(22),3,5,17,19-hexaene-14-carboxamide] | 61 % remain. | > 4 h | 99 % remain. | > 4 h | 77 % remain. | > 60 min | > 60 min | 100 % remain. |  |  |  | 
11 | C[C@H]1COc2cccc(c2)-c2cccc(c2)C(=O)N(C)[C@H](C(N)=O)CCC(=O)N1 [Ex. 71, (9S,14S)-9,15-dimethyl-11,16-dioxo-7-oxa-10,15-diazatricyclo[15.3.1.1^2,6]docosa-1(21),2(22),3,5,17,19-hexaene-14-carboxamide] | 92 % remain. | > 4 h | 100 % remain. | > 4 h | 89 % remain. | > 60 min | > 60 min | 100 % remain. |  |  |  | 
